This is an account of results in patent US20250127937A1, “FAP INHIBITOR” (UNIVERSITÄT HEIDELBERG, priority 2018, published 2025).

SMILES strings stand for the structures. Bounds are passed on as bounds.

Data set [1] deals with tumor lesions and normal tissue of cancer patients. Put plainly: Clinical PET/CT imaging in cancer patients (SUV). The data set is classed as in vivo, human. As for the experimental part: Diagnostic imaging of more than 100 patients was performed under the conditions of the updated declaration of Helsinki, § 37 (Unproven interventions in clinical practice) and in accordance to the German Pharmaceuticals Law § 13 (2b) for medical reasons using either ^68Ga-FAPI-02 or -04, which was applied intravenously (20 nmol, 122-336 MBq), 10 min, 1 and 3 hours post tracer administration. Variation of injected radiotracer activity is due to the short half-life of ^68Ga and the variable elution efficiencies obtained during the lifetime of the ^68Ge/^68Ga generator. […] The PET/CT scans were performed with a Biograph mCT Flow™ PET/CT-Scanner (Siemens Medical Solution) using the following parameters: slice thickness of 5 mm, increment of 3-4 mm, soft-tissue reconstruction kernel, care dose. Immediately after CT scanning, a whole-body PET was acquired in 3D (matrix 200×200) in FlowMotion™ with 0.7 cm/min. The emission data were corrected for random, scatter and decay. Reconstruction was conducted with an ordered subset expectation maximisation (OSEM) algorithm with 2 iterations/21 subsets and Gauss-filtered to a transaxial resolution of 5 mm at full-width half-maximum (FWHM). Attenuation correction was performed using the low-dose non-enhanced CT data. The quantitative assessment of standardized uptake values (SUV) was done using a region of interest technique.
For the normal tissue of 16 organs, a 2 cm Spheric-VOI was placed in the parenchyma, for tumor lesions a threshold segmented VOI was used to quantify SUVmean/max^3.

Data set [2] has as its system HT-1080-FAP tumor xenografts. The data set is described as follows: Organ distribution ex vivo in HT-1080-FAP tumor bearing nude mice. On the set-up: species or system mouse. As to the method: For in vivo experiments, 8 week old BALB/c nu/nu mice (Charles River) were subcutaneously inoculated into the right trunk with 5×10^6 with HT-1080-FAP, Capan-2 or SK-LMS-1 cells, respectively. When the size of the tumor reached approximately 1 cm^3, the radiolabeled compound was injected via the tail vein (˜10 MBq for small-animal PET imaging; ˜1 MBq for organ distribution). PET imaging was performed up to 140 min after intravenous injection of 1 MBq of Ga-68 labeled compound per mouse using the Inveon PET small-animal PET scanner (Siemens). Images were reconstructed iteratively using the 3D-OSEM+MAP method and were converted to standardized uptake value (SUV) images. Quantification was done using a ROI technique and expressed as SUV mean. For organ distribution of Lu-177 labeled compound (approx. […] per mouse), the animals (n=3 for each time point) were sacrificed after indicated time points (from 30 min to 24 h). The distributed radioactivity was measured in all dissected organs and in blood using a γ-counter (Cobra Autogamma, Packard). The values are expressed as percentage of injected dose per gram of tissue (% ID/g).

Data set [3] has as its system HT-1080-FAP cells. Put plainly: Efflux experiments in HT-1080-FAP cells. The data set is classed as cell-based, human. As to conditions: after 24 h in compound-free medium.
Data set [4] concerns the target human CD26 (Homo sapiens (Human), UniProt P27487). The data set is described as follows: Radioligand binding to CD26 expressing cells (HEK-CD26). As to conditions: 60 min incubation. As to the method: In vitro binding studies were performed using the human tumor cell lines BxPC3, Capan-2, MCF-7 (purchased from Sigma Aldrich Chemie GmbH) and SK-LMS-1 (purchased from ATCC) as well as stably transfected FAP-cell lines HT-1080-FAP, HEK-muFAP and the CD26 expressing cell line HEK-CD26 (obtained from Stefan Bauer, NCT Heidelberg). All cells were cultivated in Dulbecco's modified Eagle's medium (DMEM) containing 10% fetal calf serum at 37° C./5% carbon dioxide. For fluorescence internalization experiments, cells were seeded on coverslips and stained with FAPI-02-Atto488 and DAPI for cell nucleus staining. Images were acquired on a laser scanning confocal microscope using a 63× oil immersion objective.
For radioligand binding studies, cells were seeded in 6-well plates and cultivated for 48 h to a final confluence of approx. 80-90% (1.2-2 mio cells/well). The medium was replaced by 1 mL fresh medium without fetal calf serum. The radiolabeled compound was added to the cell culture and incubated for different time intervals ranging from 10 min to 24 h. Competition experiments were performed by simultaneous exposure to unlabeled (10^−5 M to 10^−9 M) and radiolabeled compound for 60 min. […] Radioactivity was determined in a γ-counter (Cobra II, Packard), normalized to 1 mio cells and calculated as percentage of the applied dose (% ID). […]

[5] abbreviates: 1 h p.i., intra-individual comparison of 6 patients.
The mark [6] stands for this setting: Lu-177 labeled, 1 h after i.v., HT-1080-FAP, mean ± SD, n = 3.

human CD26, sequence (P27487 whole entry): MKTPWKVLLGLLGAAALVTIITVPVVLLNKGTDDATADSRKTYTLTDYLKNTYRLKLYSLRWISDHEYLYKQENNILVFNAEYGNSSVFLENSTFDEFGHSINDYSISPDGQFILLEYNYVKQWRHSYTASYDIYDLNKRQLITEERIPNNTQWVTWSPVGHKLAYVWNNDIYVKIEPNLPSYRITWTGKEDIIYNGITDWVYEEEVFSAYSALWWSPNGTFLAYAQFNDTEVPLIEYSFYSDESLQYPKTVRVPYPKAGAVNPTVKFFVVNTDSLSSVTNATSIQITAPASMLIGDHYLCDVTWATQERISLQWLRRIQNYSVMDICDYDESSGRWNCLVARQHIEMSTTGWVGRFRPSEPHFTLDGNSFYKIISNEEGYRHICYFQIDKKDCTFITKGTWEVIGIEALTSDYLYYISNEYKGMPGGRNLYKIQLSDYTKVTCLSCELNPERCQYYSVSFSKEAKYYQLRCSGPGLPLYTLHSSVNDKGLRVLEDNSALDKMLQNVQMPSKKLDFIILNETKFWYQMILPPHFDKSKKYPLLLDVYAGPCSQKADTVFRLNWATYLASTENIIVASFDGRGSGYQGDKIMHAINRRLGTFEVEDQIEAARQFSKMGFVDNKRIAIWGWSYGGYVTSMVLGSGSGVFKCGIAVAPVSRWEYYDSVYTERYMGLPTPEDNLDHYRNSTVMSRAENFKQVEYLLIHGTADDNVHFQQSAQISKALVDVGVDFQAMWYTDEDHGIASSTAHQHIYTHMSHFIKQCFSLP

With `N#C[C@@H]1CCCN1C(=O)CNC(=O)c1ccnc2ccc(OCCCN3CCN(C(=O)CN4CCN(CC(=O)O)CCN(CC(=O)O)CCN(CC(=O)O)CC4)CC3)cc12` [FAPI-02], the “maximum SUV values in primary tumor, lymph node and bone metastases” value in data set [1] (68Ga labeled, 1 h after i.v. administration, patients) is no more than 48.0. For the same compound, in data set [1] (setting [5]), the “background uptake in brain” value was 0.32; the “background uptake in liver” value was found to be 1.69; the “background uptake in oral/pharyngeal mucosa” value is 2.57; the “tumor uptake, average SUV max” value was 7.37. Further, the “decrease of tumor uptake (washout)” value in data set [1] (from 1 h to 3 h p.i., patients) was 75%. The “highest enrichment within the FAP-expressing tumor” value in data set [2] (177Lu labeled, after 1 h) is recorded as 4.5 % ID/g. Moreover, in data set [2] (HT-1080-FAP tumor bearing nude mice, 1 h, mean ± SD, n = 3), the “Tumor uptake 1 h” value is 4.5 ± 0.82 % ID/g. The “Tumor uptake 4 h” value in data set [2] (HT-1080-FAP tumor bearing nude mice, 4 h, mean ± SD, n = 3) is recorded as 4.0 ± 0.56 % ID/g. Also, in data set [2] (HT-1080-FAP tumor bearing nude mice, 24 h, mean ± SD, n = 3), the “Tumor uptake 24 h” value stood at 1.12 ± 0.13 % ID/g. Moreover, in data set [2] (setting [6]), the Blood uptake was found to be 1.20 ± 0.178 % ID/g, the Brain uptake is recorded as 0.06 ± 0.006 % ID/g, the Heart uptake is on record as 0.56 ± 0.085 % ID/g and the Intestines uptake is 0.31 ± 0.046 % ID/g. In data set [2] (setting [6]), this compound displayed a Kidneys uptake of 1.60 ± 0.075 % ID/g, a Liver uptake of 0.45 ± 0.074 % ID/g, a Lungs uptake of 1.02 ± 0.152 % ID/g and a Muscle uptake of 1.17 ± 0.332 % ID/g. Moreover, in data set [2] (setting [6]), the Spleen uptake was 0.38 ± 0.051 % ID/g and the Tumor uptake is 4.51 ± 0.816 % ID/g. For the same compound, the “retention of the originally accumulated radioactivity (efflux)” value in data set [3] was determined as 12%. For the same compound, the “binding to CD26 expressing cells (% ID)” value in data set [4] was 0.13±0.01%.
